Test results: patent publication US11685732B2, “MYST family histone acetyltransferase inhibitors” (Epizyme, Inc., priority 2017, dated 2023)

Assays:
[1] = target: KAT-8 (Homo sapiens (Human), UniProt Q9H7Z6); assay: KAT-8 biochemical inhibition assay (SAMDI mass spectrometry)
Protocol: (§1) KAT-8. Enzyme assay buffer was 50 mM Tris pH 8.0, 0.002% Tween20, 0.005% bovine skin gelatin, and 1 mM dithiothreitol (DTT). For determination of IC50 values, compounds were serially diluted with 2% (v/v) DMSO in the final reaction, pre-incubating each dilution of each compound with 40 μL of assay buffer containing KAT-8 enzyme (12.5 nM final concentration). 10 μL of assay buffer containing 1 μM peptide substrate and 5 μM acetyl coenzyme A (final concentrations) was added. Reactions (50 μL total) were then carried out at 25° C. for 90 minutes. Reactions were terminated by the addition of 0.5% formic acid (final concentration), and a sample of each reaction was analyzed by SAMDI Tech, Inc. (Chicago, Ill.) using self-assembled monolayer desorption/ionization time-of-flight mass spectrometry (Mrksich, M. (2008) Mass spectrometry of self-assembled monolayers: a new tool for molecular surface science. ACS Nano 2, 7-18).

[2] = target: KAT-7 (Homo sapiens (Human), UniProt O95251); assay: KAT-7 biochemical inhibition assay (SAMDI mass spectrometry)
Sequence of KAT-7 (O95251 other isoform, or with tags, fused parts or gaps): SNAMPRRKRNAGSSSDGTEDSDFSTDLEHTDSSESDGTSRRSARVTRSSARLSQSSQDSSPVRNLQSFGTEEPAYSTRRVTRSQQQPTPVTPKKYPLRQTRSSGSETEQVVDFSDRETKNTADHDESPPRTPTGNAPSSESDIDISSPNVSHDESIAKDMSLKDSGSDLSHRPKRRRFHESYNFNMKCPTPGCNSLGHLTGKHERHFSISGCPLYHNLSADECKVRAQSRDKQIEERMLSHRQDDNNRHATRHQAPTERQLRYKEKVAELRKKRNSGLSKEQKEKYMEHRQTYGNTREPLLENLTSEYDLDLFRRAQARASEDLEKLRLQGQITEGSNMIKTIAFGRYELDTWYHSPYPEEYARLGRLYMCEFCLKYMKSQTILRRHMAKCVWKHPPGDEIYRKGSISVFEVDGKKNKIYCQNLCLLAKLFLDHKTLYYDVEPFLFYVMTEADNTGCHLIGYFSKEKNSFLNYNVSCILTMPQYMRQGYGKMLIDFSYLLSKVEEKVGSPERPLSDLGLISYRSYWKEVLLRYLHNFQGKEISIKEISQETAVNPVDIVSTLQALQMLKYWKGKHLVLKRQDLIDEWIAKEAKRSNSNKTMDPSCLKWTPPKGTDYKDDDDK
Protocol: as §1, with “KAT-7. Enzyme” for “KAT-8. Enzyme”, “containing KAT-7” for “containing KAT-8”, “enzyme (6” for “enzyme (12.5”, “and 2” for “and 5”, “for 120” for “for 90”

[3] = target: KAT-5 (Homo sapiens (Human), UniProt Q92993); assay: KAT-5 biochemical inhibition assay (SAMDI mass spectrometry)
Sequence of KAT-5 (Q92993 other isoform, or with tags, fused parts or gaps): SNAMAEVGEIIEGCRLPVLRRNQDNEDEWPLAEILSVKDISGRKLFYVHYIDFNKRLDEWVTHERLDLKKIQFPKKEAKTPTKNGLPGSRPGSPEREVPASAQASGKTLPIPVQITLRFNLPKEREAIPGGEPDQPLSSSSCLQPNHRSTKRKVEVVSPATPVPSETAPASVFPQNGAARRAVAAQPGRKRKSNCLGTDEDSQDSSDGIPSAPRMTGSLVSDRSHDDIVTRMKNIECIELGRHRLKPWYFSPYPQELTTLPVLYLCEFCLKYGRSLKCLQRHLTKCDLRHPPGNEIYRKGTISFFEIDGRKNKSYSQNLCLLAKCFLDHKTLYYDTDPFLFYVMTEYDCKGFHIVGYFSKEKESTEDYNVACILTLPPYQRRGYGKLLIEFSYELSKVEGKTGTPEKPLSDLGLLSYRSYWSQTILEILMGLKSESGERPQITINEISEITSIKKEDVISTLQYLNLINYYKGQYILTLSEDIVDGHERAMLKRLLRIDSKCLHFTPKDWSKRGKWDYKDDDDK
Summary of the method: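 KAT-5 at 9 nM final was preincubated with serially diluted compound (2% DMSO) in 50 mM Tris pH 8.0 with 1 mM DTT. Reaction ran with 1 μM peptide substrate and 0.5 μM acetyl-CoA for 90 min at 25° C, was quenched with 0.5% formic acid, and was read by SAMDI-TOF mass spectrometry.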

[4] = target: KAT-6A (Homo sapiens (Human), UniProt Q92794); assay: KAT-6A biochemical inhibition assay (SAMDI mass spectrometry)
Sequence of KAT-6A (Q92794 other isoform, or with tags, fused parts or gaps): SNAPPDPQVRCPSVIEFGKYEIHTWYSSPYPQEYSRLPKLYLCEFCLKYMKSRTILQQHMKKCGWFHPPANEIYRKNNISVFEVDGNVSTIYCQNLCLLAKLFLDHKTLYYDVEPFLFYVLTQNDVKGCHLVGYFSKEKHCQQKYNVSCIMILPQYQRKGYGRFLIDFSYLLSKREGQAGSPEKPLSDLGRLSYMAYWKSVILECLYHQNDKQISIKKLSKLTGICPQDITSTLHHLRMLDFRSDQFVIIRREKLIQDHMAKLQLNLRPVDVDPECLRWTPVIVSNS
Summary of the method: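 Enzyme (12.5 nM final) pre-incubated with serially diluted compounds (2% DMSO final) in 50 mM Tris pH 8.0 with Tween20, gelatin and 1 mM DTT. Reaction started with 1 μM peptide substrate and 1 μM acetyl-CoA, run 90 min at 25 °C, quenched with 0.5% formic acid, read by SAMDI-TOF mass spectrometry; IC50 derived.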

Sequence of KAT-8 (Q9H7Z6 other isoform, or with tags, fused parts or gaps): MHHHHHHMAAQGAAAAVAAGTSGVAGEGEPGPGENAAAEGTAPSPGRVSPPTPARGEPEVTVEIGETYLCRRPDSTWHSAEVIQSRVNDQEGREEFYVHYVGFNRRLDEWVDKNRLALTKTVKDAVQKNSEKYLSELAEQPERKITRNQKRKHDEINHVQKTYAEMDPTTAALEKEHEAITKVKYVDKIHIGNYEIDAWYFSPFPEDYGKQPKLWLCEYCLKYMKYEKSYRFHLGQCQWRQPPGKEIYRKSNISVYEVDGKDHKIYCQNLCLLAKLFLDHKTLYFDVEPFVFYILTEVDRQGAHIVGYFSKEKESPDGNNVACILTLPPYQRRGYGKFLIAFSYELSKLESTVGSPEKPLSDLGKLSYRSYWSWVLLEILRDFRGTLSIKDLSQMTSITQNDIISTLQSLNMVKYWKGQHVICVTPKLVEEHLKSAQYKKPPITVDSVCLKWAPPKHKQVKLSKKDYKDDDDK

Structure (SMILES) | IC50 [1] [µM] | IC50 [2] [µM] | IC50 [3] [µM] | IC50 [4] [µM]
Cn1cc(-c2cc(Cl)c(F)c(C(=O)NNS(=O)(=O)CC3CCOCC3)c2)cn1 [Compound I-16] | > 100 | < 10 | 10 to 50 | > 100
Cc1ccnc(-c2cc(Cl)c(F)c(C(=O)NNS(=O)(=O)CC3CCOCC3)c2)c1 [Compound I-17] | > 100 | < 10 | < 10 | < 10
Cn1cnc(-c2cc(Cl)c(F)c(C(=O)NNS(=O)(=O)C3CC3)c2)c1 [Compound I-19] | > 100 | 10 to 50 | > 100 | > 100
Cn1cnc(-c2cc(Cl)c(F)c(C(=O)NNS(=O)(=O)CC3CCCC3)c2)c1 [Compound I-20] | 50 to 100 | < 10 | < 10 | < 10
Cn1cnc(-c2cc(Cl)c(F)c(C(=O)NNS(C)(=O)=O)c2)c1 [Compound I-22] | > 100 | < 10 | > 100 | 10 to 50
CCS(=O)(=O)NNC(=O)c1cc(-c2cn(C)cn2)cc(Cl)c1F [Compound I-25] | > 100 | < 10 | 10 to 50 | 50 to 100
Cc1nc(-c2cc(Cl)c(F)c(C(=O)NNS(=O)(=O)C3CCCCC3)c2)cn1C [Compound I-26] | > 100 | < 10 | < 10 | 10 to 50
Cn1cnc(-c2cc(Cl)c(F)c(C(=O)NNS(=O)(=O)C3CCOC3)c2)c1 (stereo not shown) [Compound I-27] | > 100 | < 10 | 10 to 50 | 50 to 100
CCn1cnc(-c2cc(Cl)c(F)c(C(=O)NNS(=O)(=O)CC3CCCCC3)c2)c1C [Compound I-28] | > 100 | < 10 | 10 to 50 | > 100
Cc1ncc(-c2cc(Cl)c(F)c(C(=O)NNS(=O)(=O)CC3CCCCC3)c2)n1C [Compound I-29] | > 100 | 50 to 100 | 10 to 50 | > 100
Cc1ncc(-c2cc(Cl)c(F)c(C(=O)NNS(=O)(=O)CC3CCOCC3)c2)n1C [Compound I-30] | > 100 | > 100 | > 100 | > 100
Cn1cnc(-c2cc(Cl)c(F)c(C(=O)NNS(=O)(=O)CC3CCC3)c2)c1 [Compound I-31] | 10 to 50 | < 10 | < 10 | < 10
Cn1cnc(-c2cc(Cl)c(F)c(C(=O)NNS(=O)(=O)CC3CCCN(C(=O)C4CCOCC4)C3)c2)c1 (stereo not shown) [Compound I-32] | > 100 | < 10 | < 10 | < 10
Cc1nc(-c2cc(Cl)c(F)c(C(=O)NNS(=O)(=O)CC3CCOCC3)c2)cn1C [Compound I-33] | > 100 | < 10 | 10 to 50 | 10 to 50
O=C(NNS(=O)(=O)CC1CCCCC1)c1cc(-n2cccn2)cc(Cl)c1F [Compound I-34] | > 100 | 10 to 50 | < 10 | < 10
COCC(=O)N1CCCC(CS(=O)(=O)NNC(=O)c2cc(-c3cn(C)cn3)cc(Cl)c2F)C1 (stereo not shown) [Compound I-35] | 10 to 50 | < 10 | < 10 | < 10
Cc1cnn(-c2cc(Cl)c(F)c(C(=O)NNS(=O)(=O)CC3CCOCC3)c2)c1 [Compound I-36] | > 100 | < 10 | 10 to 50 | < 10
Cc1nc(-c2cc(Cl)c(F)c(C(=O)NNS(=O)(=O)C3CCOCC3)c2)cn1C [Compound I-37] | > 100 | 10 to 50 | 50 to 100 | 10 to 50
CCn1cnc(C)c1-c1cc(Cl)c(F)c(C(=O)NNS(=O)(=O)CC2CCCCC2)c1 [Compound I-40] | > 100 | > 100 | > 100 | > 100
O=C(NNS(=O)(=O)CC1CCOCC1)c1cc(-n2cccn2)cc(Cl)c1F [Compound I-41] | > 100 | 50 to 100 | 10 to 50 | < 10

Structure (SMILES) | IC50 [1] [µM] | IC50 [2] [µM] | IC50 [3] [µM] | IC50 [4] [µM]
Cn1cnc(-c2cc(Cl)c(F)c(C(=O)NNS(=O)(=O)C3COC3)c2)c1 [Compound I-42] | > 100 | < 10 | > 100 | > 100
Cc1ccn(-c2cc(Cl)c(F)c(C(=O)NNS(=O)(=O)CC3CCOCC3)c2)n1 [Compound I-43] | > 100 | 50 to 100 | 10 to 50 | < 10
O=C(NNS(=O)(=O)CC1CCCCC1)c1cc(-n2ccnc2)cc(Cl)c1F [Compound I-44] | > 100 | > 100 | 50 to 100 | > 100
Cc1ncn(C)c1-c1cc(Cl)c(F)c(C(=O)NNS(=O)(=O)CC2CCCCC2)c1 [Compound I-45] | > 100 | 50 to 100 | > 100 | > 100
CCn1cc(-c2cc(Cl)c(F)c(C(=O)NNS(=O)(=O)C3CCCCC3)c2)nc1C [Compound I-46] | > 100 | < 10 | 10 to 50 | 50 to 100
O=C(NNS(=O)(=O)CC1CCOCC1)c1cc(-n2ccnc2)cc(Cl)c1F [Compound I-47] | > 100 | > 100 | < 10 | 50 to 100
O=C(NNS(=O)(=O)CC1CCOCC1)c1cc(-c2cscn2)cc(Cl)c1F [Compound I-48] | > 100 | < 10 | < 10 | < 10
Cc1cn(-c2cc(Cl)c(F)c(C(=O)NNS(=O)(=O)CC3CCOCC3)c2)cn1 [Compound I-49] | > 100 | > 100 | > 100 | > 100
Cc1cn(-c2cc(Cl)c(F)c(C(=O)NNS(=O)(=O)CC3CCOCC3)c2)nn1 [Compound I-50] | > 100 | 10 to 50 | < 10 | < 10
Cn1cnc(-c2cc(Cl)c(F)c(C(=O)NNS(=O)(=O)CC3CCCCC3)c2)c1 [Compound I-51, N′-(3-chloro-2-fluoro-5-(1-methyl-1H-imidazol-4-yl)benzoyl)-1-cyclohexyl methanesulfonohydrazide] | 10 to 50 | < 10 | < 10 | < 10
CCn1cc(S(=O)(=O)NNC(=O)c2cc(-c3cn(C)cn3)cc(Cl)c2F)cn1 [Compound I-52] | > 100 | < 10 | 10 to 50 | 10 to 50
Cn1cnc(-c2cc(Cl)c(F)c(C(=O)NNS(=O)(=O)CC3CCCN(S(C)(=O)=O)C3)c2)c1 (stereo not shown) [Compound I-53] | 50 to 100 | < 10 | < 10 | < 10
Cc1ncc(-c2cc(Cl)c(F)c(C(=O)NNS(=O)(=O)C3CCOCC3)c2)n1C [Compound I-54] | > 100 | > 100 | 50 to 100 | > 100
Cn1cc(-c2cc(Cl)c(F)c(C(=O)NNS(=O)(=O)CC3CCCCC3)c2)nn1 [Compound I-55] | 10 to 50 | < 10 | < 10 | < 10
COCCC(=O)N1CCC(CS(=O)(=O)NNC(=O)c2cc(-c3cn(C)cn3)cc(Cl)c2F)C1 (stereo not shown) [Compound I-56] | 10 to 50 | < 10 | 10 to 50 | 10 to 50
CC(=O)N1CCC(CS(=O)(=O)NNC(=O)c2cc(-c3cn(C)cn3)cc(Cl)c2F)C1 (stereo not shown) [Compound I-57] | 10 to 50 | < 10 | 10 to 50 | 10 to 50
Cc1nn(C)c(C)c1-c1cc(Cl)c(F)c(C(=O)NNS(=O)(=O)CC2CCOCC2)c1 [Compound I-58] | > 100 | > 100 | > 100 | > 100
Cc1ncc(-c2cc(Cl)c(F)c(C(=O)NNS(=O)(=O)C3CCCCC3)c2)n1C [Compound I-59] | > 100 | > 100 | 10 to 50 | > 100
CCn1c(-c2cc(Cl)c(F)c(C(=O)NNS(=O)(=O)C3CCCCC3)c2)cnc1C [Compound I-61] | > 100 | 10 to 50 | > 100 | > 100
COCC(=O)N1CCC(CS(=O)(=O)NNC(=O)c2cc(-c3cn(C)cn3)cc(Cl)c2F)C1 (stereo not shown) [Compound I-62] | 10 to 50 | < 10 | 10 to 50 | 10 to 50
